pKi: −log10 of the molar value. “Also recorded” adds a separate entry of the source. Where a SMILES comes first, the peptide text is derived from it. The star is where a group is joined. Boc = CC(C)(C)OC(=O)*; CH2Cl = ClC*
Key:
calpain II from rabbit = assay: Calpain II inhibition, Suc-Leu-Tyr-AMC (Table PKC1); type: biochemical; settings: 20 mM Hepes, 10 mM CaCl2, 10 mM β-mercaptoethanol, pH 7.2; read-out: Ki CII (Calpain II)
Protocol: Our discovery of Peptide Keto-Compounds effective as Calpain Inhibitors was made through assay of the Peptide Keto-Compounds as reversible inhibitors. Various concentrations of inhibitors in dimethylsulfoxide (DMSO) were added to the assay mixture, which contained buffer and substrate. The reaction was started by the addition of the enzyme and the hydrolysis rates were followed spectrophotometrically or fluorimetrically. 88 mM KH2 PO4, 12 mM Na2 HPO4, 1.33 mM EDTA, 2.7 mM cysteine, pH 6.0 was used as a buffer for cathepsin B; and 20 mM Hepes, 10 mM CaCl2, 10 mM β-mercaptoethanol, pH 7.2 buffer was utilized for calpain I and calpain II.
All peptide thioester hydrolysis rates were measured with assay mixtures containing 4,4'-dithiodipyridine [e324=19800 M-1 cm-1; Grasetti & Murray, Arch. Biochem. Biophys. 119, pp 41-49 (1967)]. Papain was assayed with Bz-Arg-AMC or Bz-Arg-NA [Kanaoka et al., Chem. Pharm. Bull. 25, 3126-3128 (1977)], and the AMC (7-amino-4-methylcoumarin) release was followed fluorimetrically (excitation at 380 nm, and emission at 460 nm). Cathepsin B was assayed with Z-Arg-Arg-AFC [Barrett and Kirschke, Methods Enzymol. 80, 535-561 (1981)], and the AFC (7-amino-4-trifluoromethylcoumarin) release was followed fluorimetrically (excitation at 400 nm, and emission at 505 nm). Calpain I from human erythrocytes and calpain II from rabbit were assayed using Suc-Leu-Tyr-AMC [Sasaki et al., J. Biol. Chem. 259, 12489-12494 (1984), hereby incorporated by reference], and the AMC (7-amino-4-methylcoumarin) release was followed fluorimetrically (excitation at 380 nm, and emission at 460 nm). Enzymatic hydrolysis rates were measured at various substrate and inhibitor concentrations, and Ki values were determined by Dixon plot.

[1] = target: T1, Calpain I from human erythrocytes (Homo sapiens, UniProt P07384); assay: Calpain I Ki (Table 1B(i)); type: biochemical; settings: Suc-Leu-Tyr-amidomethylcoumarin, HEPES pH 7.2
T1 construct: Calpain I from human erythrocytes and calpain II from rabbit were assayed using Suc-Leu-Tyr-AMC; from tissue; host or cells: human erythrocytes
T1 sequence (P07384 1-714): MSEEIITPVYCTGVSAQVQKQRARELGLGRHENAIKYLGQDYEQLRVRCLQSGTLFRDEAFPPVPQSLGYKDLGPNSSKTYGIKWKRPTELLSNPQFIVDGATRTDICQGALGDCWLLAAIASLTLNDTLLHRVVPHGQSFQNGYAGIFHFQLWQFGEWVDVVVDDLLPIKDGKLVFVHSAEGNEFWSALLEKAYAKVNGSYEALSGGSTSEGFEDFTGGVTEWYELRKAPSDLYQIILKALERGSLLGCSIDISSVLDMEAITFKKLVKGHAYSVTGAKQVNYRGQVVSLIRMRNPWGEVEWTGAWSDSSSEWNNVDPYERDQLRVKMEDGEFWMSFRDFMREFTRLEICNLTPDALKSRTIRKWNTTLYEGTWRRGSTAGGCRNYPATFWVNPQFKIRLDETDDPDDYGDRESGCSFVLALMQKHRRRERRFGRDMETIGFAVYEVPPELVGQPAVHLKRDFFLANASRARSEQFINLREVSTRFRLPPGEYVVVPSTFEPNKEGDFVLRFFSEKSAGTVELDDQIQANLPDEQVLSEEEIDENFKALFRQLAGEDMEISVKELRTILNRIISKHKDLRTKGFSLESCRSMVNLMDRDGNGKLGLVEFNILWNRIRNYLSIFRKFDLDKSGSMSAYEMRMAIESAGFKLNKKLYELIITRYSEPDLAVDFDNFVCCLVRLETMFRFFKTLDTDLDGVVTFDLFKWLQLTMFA
T1 sequence (P04632 1-268 partner): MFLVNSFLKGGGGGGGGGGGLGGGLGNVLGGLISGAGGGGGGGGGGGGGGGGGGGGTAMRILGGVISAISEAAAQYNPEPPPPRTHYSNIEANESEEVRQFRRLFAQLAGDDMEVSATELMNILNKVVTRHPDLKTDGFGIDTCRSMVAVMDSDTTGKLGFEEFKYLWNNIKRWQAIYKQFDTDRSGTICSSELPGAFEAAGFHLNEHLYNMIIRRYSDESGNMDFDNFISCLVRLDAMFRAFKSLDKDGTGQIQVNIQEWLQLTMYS
Protocol: The Peptide Keto-Compounds are reversible inhibitors of Calpains and other thiol proteases. […] Cathepsin B from bovine spleen was assayed using Z-Lys-4-nitrophenylphosphate as substrate.
The Ki value for the inhibition of Calpains and cathepsin B by several Peptide Keto-Compounds are shown in μM (micromolar). The values for leupeptin, which is commercially available from Calbiochem of La Jolla, Calif., are shown for comparison.

Cathepsin B = Cathepsin B (Bos taurus, UniProt P07688); assay: Cathepsin B KI (Table 1B(ii)); type: biochemical; settings: read-out: KI CathB
Excerpt: We tested the ability of an additional group of Peptide Keto-Compounds to inhibit several proteases in order to evaluate their specificity for Calpain.

hippocampal slices = assay: Hippocampal slice survival after 10 min anoxia (Example 7A); type: cell-based, rat
Protocol: Hippocampal slices (400 um) were prepared from Sprague Dawley rats (6 to 7 weeks) and maintained in an interface chamber at 35° C. using conventional techniques, i.e., the lower surface of the slice received a constant perfusion (0.5 ml/min) of ACSF, while the upper surface was exposed to a moist atmosphere of O2 :CO2 (95%:5%) exchanged at a rate of 2 L/min. The ACSF medium contains (in mM): NaCl (124), KCl (3), KHPO4 (2.5), CaCl (3.4), NaHCO3 (26) and D-Glucose (10). Field excitatory post-synaptic responses were recorded from stratum radiatum of CAlb in response to stimulation of Schaffer-commissural fibers in CAla or CAlc. The depth of the recording electrode was optimized and evoked responses were collected at a rate of one evoked response every 30 seconds.
For the initial screening procedure, 14 to 16 slices are harvested from the hippocampus of a single rat and placed in a common ACSF bath. Each slice is tested in sequence to determine the magnitude of its pre-anoxic evoked response. Five stimulation pulses (each 0.1 ms (millisecond) in duration) were presented over a 15 second interval. The largest evoked response was noted and recorded for each slice.
After the one hour drug incubation period, the oxygen-enriched atmosphere of the chamber was made anoxic by substituting nitrogen for oxygen (N2 =95%; CO^2 =5%). The slices were retained in this anoxic environment for 10 minutes, following which the oxygen-enriched atmosphere (O^2 =95%; CO2 =5%) was reestablished.
The slices were given the opportunity to recover for 30 minutes following reoxygenation whereupon each was stimulated and the maximum evoked potential determined, as described above during the pre-anoxia period. Those slices which, after anoxia, produced a maximum evoked potential of greater than 50% of that observed prior to anoxia were defined as surviving slices.

CCOC(=O)C(=O)C(CC)NC(=O)[C@H](C)NC(=O)[C@H](C)NC(=O)OCc1ccccc1 (mixture of isomers) [Z-Ala-Ala-DL-Abu-COOEt, Z-Ala-Ala-DL-Abu-CO2 Et]
pKi (calpain II from rabbit): 3.70
pKi [1]: 4.30

CCOC(=O)C(=O)[C@H](CC)NC(=O)[C@H](CC(C)C)NC(=O)OCc1ccccc1 (racemic) [Z-Leu-Abu-COOEt, Z-Leu-DL-Abu-COOEt]
pKi (calpain II from rabbit): 6.40
pKi (Cathepsin B): 4.52
pKi [1]: 7.40
protection of slices from anoxia (FIG. 3) (hippocampal slices; 10 minutes anoxic atmosphere, listed as CX218): protected from the effects of anoxia; also recorded: significantly more effective
Survival of slices after ten minutes anoxia (hippocampal slices; Dose 100 μM, incubation 1 hour): 70%

CCCC(NC(=O)[C@H](CC(C)C)NC(=O)OCc1ccccc1)C(=O)C(=O)OCC (mixture of isomers) [Z-Leu-Nva-COOEt, Z-Leu-DL-Nva-COOEt]
pKi (calpain II from rabbit): 5.92
pKi (Cathepsin B): 4.60

CC(C)CC(NC(=O)CNC(=O)OC(C)(C)C)C(=O)NC(Cc1ccccc1)C(=O)CCl (stereo not drawn) [Boc-Gly-Leu-Phe-CH2 Cl] (Boc-Gly-Leu-Phe-CH2Cl; configuration not given here)
Survival of slices after ten minutes anoxia (hippocampal slices; Dose 50 μM, incubation 1 hour): 50%

CC(=O)N[C@@H](CC(C)C)C(=O)N[C@@H](CC(C)C)C(=O)N[C@H](C=O)CCCNC(=N)N [Leupeptin, Ac-Leu-Leu-Arg-H, reference compound]
pKi [1]: 6.49
Survival of slices after ten minutes anoxia (hippocampal slices; Dose 1000 μM, incubation 3 hours): 50%

N=C(N)SCCCOc1oc(=O)c2cc(N)ccc2c1Cl [NH2 -CiTPrOIC (ACITIC), 7-amino-4-chloro-3-(3-isothiureidopropoxy)isocoumarin]
Survival of slices after ten minutes anoxia (hippocampal slices; Dose 20 μM, incubation 1 hour): 50%

CCCCC(NC(=O)C(CC(C)C)NC(=O)OCc1ccccc1)C(=O)C(=O)OCC (stereo not drawn) [Z-Leu-Nle-COOEt, Z-Leu-NLeu-CO2 Et]
pKi (calpain II from rabbit): 6.74
pKi (Cathepsin B): 4.70

CCOC(=O)C(=O)C(Cc1ccccc1)NC(=O)C(CC(C)C)NC(=O)OCc1ccccc1 (stereo not drawn) [Z-Leu-Phe-COOEt]
pKi (calpain II from rabbit): 6.40
pKi (Cathepsin B): 3.47
